Our source for the IC50 and GI50 values is patent US11566017B2, “Dihydroquinazolinone compound or pharmacologically acceptable salt, and cell growth inhibitor” (RIKEN, priority 2017, dated 2023).

One may read the IC50 as the concentration needed to halve the response being measured. Broadly, the GI50 is the concentration that inhibits growth by half.

For one assay, the target named is T1, tankyrase 2 (TNKS2) (Homo sapiens, UniProt Q9H2K2).
T1 construct: tankyrase 2 (613-1,116aa, ANK5+SAM+PARP); made in house; host or cells: cell-free protein expression system
Description: Tankyrase inhibitory activity test (ELISA, auto-poly(ADP-ribosyl)ation), tankyrase 2. It counts as biochemical. The following applies: Flag tagged tankyrase 2 (613-1,116aa, ANK5+SAM+PARP); read-out: TNKS2 (inhibitory activity against tankyrase 2, IC50). The gist of the method: (§1)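 Cell-free-expressed Flag-tagged TNKS1 (1,024-1,327aa, SAM+PARP) or TNKS2 (613-1,116aa, ANK5+SAM+PARP) was captured on anti-FLAG plates and pre-incubated 10 min at RT with compound (pH 8.0, MgCl2, DTT). Auto-PARylation was started with NAD solution (225 μM NAD, 25 μM biotin-NAD), 45 min at 30 °C. Detection by HRP-streptavidin chemiluminescence; IC50 from residual activity.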

In assay [1] the test system is human colorectal cancer cell line COLO-320DM. The assay can be described thus: Cell proliferation inhibitory activity test (Celltiter-Glo). It counts as cell-based. The note with it: COLO-320DM cells, 96 hours. (In general: ATP-based viability assays read luminescence as a measure of living cells.)
Another assay addresses T2, tankyrase 1 (TNKS1) (Homo sapiens, UniProt O95271).
T2 construct: tankyrase 1 (1,024-1,327aa, SAM+PARP); made in house; host or cells: cell-free protein expression system
The assay can be described thus: Tankyrase inhibitory activity test (ELISA, auto-poly(ADP-ribosyl)ation), tankyrase 1. It counts as biochemical. The following applies: Flag tagged tankyrase 1 (1,024-1,327aa, SAM+PARP); read-out: TNKS1 (inhibitory activity against tankyrase 1, IC50). The gist of the method:
as §1
In general terms: In an ELISA, binding on a coated surface is turned into a signal by an enzyme label.

T2 sequence (O95271 1024-1327): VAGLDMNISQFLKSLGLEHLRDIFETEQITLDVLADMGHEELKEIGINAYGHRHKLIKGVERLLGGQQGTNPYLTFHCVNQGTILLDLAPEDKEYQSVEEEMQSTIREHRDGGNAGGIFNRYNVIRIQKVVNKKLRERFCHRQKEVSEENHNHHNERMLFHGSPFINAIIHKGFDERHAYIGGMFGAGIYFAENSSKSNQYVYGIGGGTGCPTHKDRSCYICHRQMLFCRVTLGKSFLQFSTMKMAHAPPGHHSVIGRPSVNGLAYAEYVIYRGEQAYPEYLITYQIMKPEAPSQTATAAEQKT

Turning to `COc1ccc(-c2n[nH]cc2C2NC(=O)c3cccc4c3N2CC4)cc1` (stereo not drawn) [Example 52, 11-[5-(4-Methoxyphenyl)-1H-pyrazol-4-yl]-1,10-diazatricyclo[6.3.1.0^4,12]dodeca-4(12),5,7-trien-9-one], the IC50 is 5 to 20 nM at tankyrase 2 (TNKS2) and under 5 nM at tankyrase 1 (TNKS1). In addition, the GI50 in assay [1] is at least 10000 nM.

Regarding `COc1ccc(-c2n[nH]cc2C2NC(=O)c3ccc(C)cc3N2C)cc1` (stereo not drawn) [Example 53, 2-[5-(4-Methoxyphenyl)-1H-pyrazol-4-yl]-1,7-dimethyl-2,3-dihydroquinazolin-4-one], the IC50 at tankyrase 2 (TNKS2) and at tankyrase 1 (TNKS1) was 5 to 20 nM throughout. Besides, the GI50 in assay [1] was at least 10000 nM.

`Cc1cccc2c1NC(c1c[nH]nc1-c1ccc(OCC(F)(F)F)cc1)NC2=O` (stereo not drawn) [Example 54, 8-Methyl-2-[3-(4-(2,2,2-trifluoroethoxy)phenyl)-1H-pyrazol-4-yl]-2,3-dihydro-1H-quinazolin-4-one]: the results for the IC50 at tankyrase 2 (TNKS2) and at tankyrase 1 (TNKS1) were under 5 nM and 5 to 20 nM, respectively. In addition, the 50% growth inhibitory concentration (GI50) in assay [1] lay in the range of 1000 to 10000 nM.

Turning to `CCOc1ccc(-c2n[nH]cc2C2NC(=O)c3cccc(C)c3N2)cc1` (stereo not drawn) [Example 55, 2-[5-(4-Ethoxyphenyl)-1H-pyrazol-4-yl]-8-methyl-2,3-dihydro-1H-quinazolin-4-one], the IC50 at tankyrase 2 (TNKS2) was under 5 nM; at tankyrase 1 (TNKS1), 5 to 20 nM. Also, the 50% growth inhibitory concentration (GI50) in assay [1] was in the range of 1000 to 10000 nM.

As to `COc1ccc(-c2n[nH]cc2C2NC(=O)c3cccc(C)c3N2)cc1F` (stereo not drawn) [Example 56, 2-[5-(3-Fluoro-4-methoxyphenyl)-1H-pyrazol-4-yl]-8-methyl-2,3-dihydro-1H-quinazolin-4-one], the IC50 at tankyrase 2 (TNKS2) and at tankyrase 1 (TNKS1) was 5 to 20 nM in each case. Moreover, in assay [1], the GI50 is at least 10000 nM.

As to `CCc1cccc2c1NC(c1c[nH]nc1-c1ccc(OC)cc1)NC2=O` (stereo not drawn) [Example 57, 8-Ethyl-2-[3-(4-methoxyphenyl)-1H-pyrazol-4-yl]-2,3-dihydro-1H-quinazolin-4-one], the IC50 on tankyrase 2 (TNKS2) is under 5 nM; at tankyrase 1 (TNKS1), 5 to 20 nM. In addition, the 50% growth inhibitory concentration (GI50) in assay [1] is 1000 to 10000 nM.

Regarding `COc1ccc(-c2n[nH]nc2C2NC(=O)c3ccccc3N2C)cc1` (stereo not drawn) [Example 58, 2-[5-(4-Methoxyphenyl)-2H-1,2,3-triazol-4-yl]-1-methyl-2,3-dihydroquinazolin-4-one], the half-maximal inhibitory concentration (IC50) on tankyrase 2 (TNKS2) was under 5 nM; on tankyrase 1 (TNKS1), 5 to 20 nM. Further, the GI50 in assay [1] was in the range of 1000 to 10000 nM.

For the molecule `COc1ccc(-c2n[nH]nc2C2NC(=O)c3ccccc3N2)cc1` (stereo not drawn) [Example 59, 2-[5-(4-Methoxyphenyl)-2H-1,2,3-triazol-4-yl]-2,3-dihydro-1H-quinazolin-4-one], the IC50 is under 5 nM on tankyrase 2 (TNKS2) and 20 to 50 nM at tankyrase 1 (TNKS1). For the same molecule, the GI50 in assay [1] is 1000 to 10000 nM.

Regarding `CN1c2ccccc2C(=O)NC1c1n[nH]nc1-c1ccc(Br)cc1` (stereo not drawn) [Example 60, 2-[4-(4-Bromophenyl)-2H-1,2,3-triazol-5-yl]-1-methyl-2,3-dihydroquinazolin-4-one], the IC50 at tankyrase 2 (TNKS2) and on tankyrase 1 (TNKS1) was 5 to 20 nM throughout. In addition, the 50% growth inhibitory concentration (GI50) in assay [1] lay in the range of 1000 to 10000 nM.

For `CN1CCN(c2ccc(-c3cccc(-c4n[nH]nc4C4NC(=O)c5ccccc5N4C)c3)cc2)CC1` (stereo not drawn) [Example 61, 1-Methyl-2-[5-[3-[4-(4-methylpiperazin-1-yl)phenyl]phenyl]-2H-1,2,3-triazol-4-yl]-2,3-dihydroquinazolin-4-one], the IC50 on tankyrase 2 (TNKS2) and at tankyrase 1 (TNKS1) was 5 to 20 nM in each case. Besides, the GI50 in assay [1] was at least 10000 nM.

With `CN1c2ccccc2C(=O)NC1c1n[nH]nc1-c1cccc(-c2ccc(N3CCOCC3)cc2)c1` (stereo not drawn) [Example 62, 1-Methyl-2-[4-[3-(4-morpholin-4-ylphenyl)phenyl]-2H-1,2,3-triazol-5-yl]-2,3-dihydroquinazolin-4-one], the IC50 on tankyrase 2 (TNKS2) and at tankyrase 1 (TNKS1) was 5 to 20 nM in each case. The GI50 in assay [1] is at least 10000 nM.

Consider `CCOc1ccc(-c2n[nH]nc2C2NC(=O)c3ccccc3N2C)cc1` (stereo not drawn) [Example 63, 2-[5-(4-Ethoxyphenyl)-2H-1,2,3-triazol-4-yl]-1-methyl-2,3-dihydroquinazolin-4-one], for which the IC50 at tankyrase 2 (TNKS2) and on tankyrase 1 (TNKS1) was 5 to 20 nM throughout. Further, the GI50 in assay [1] fell in the range of 1000 to 10000 nM.

In the case of `CN1c2ccccc2C(=O)NC1c1n[nH]nc1-c1ccc(OCC(F)(F)F)cc1` (stereo not drawn) [Example 64, 1-Methyl-2-[4-[4-(2,2,2-trifluoroethoxy)phenyl]-2H-1,2,3-triazol-5-yl]-2,3-dihydroquinazolin-4-one], the IC50 lay in the range of 5 to 20 nM at tankyrase 2 (TNKS2) and 20 to 50 nM on tankyrase 1 (TNKS1). Moreover, the GI50 in assay [1] was at least 10000 nM.

On to `Cc1cccc2c1NC(c1n[nH]nc1-c1ccc(Br)cc1)NC2=O` (stereo not drawn) [Example 66, 2-[4-(4-Bromophenyl)-2H-1,2,3-triazol-5-yl]-8-methyl-2,3-dihydro-1H-quinazolin-4-one], for which the 50% inhibitory concentration (IC50) on tankyrase 2 (TNKS2) was under 5 nM; at tankyrase 1 (TNKS1) it was 5 to 20 nM. For the same molecule, the GI50 in assay [1] was at least 10000 nM.

For the molecule `COc1ccc(-c2n[nH]nc2C2NC(=O)c3cccc(O)c3N2)cc1` (stereo not drawn) [Example 67, 8-Hydroxy-2-[5-(4-methoxyphenyl)-2H-1,2,3-triazol-4-yl]-2,3-dihydro-1H-quinazolin-4-one], the IC50 at tankyrase 2 (TNKS2) and at tankyrase 1 (TNKS1) was 5 to 20 nM each time. For the same molecule, the GI50 in assay [1] is at least 10000 nM.

For `COc1ccc(-c2n[nH]nc2C2NC(=O)c3cccc4c3N2CCO4)cc1` (stereo not drawn) [Example 68, 2-[5-(4-Methoxyphenyl)-2H-1,2,3-triazol-4-yl]-10-oxa-1,3-diazatricyclo[7.3.1.0^5,13]trideca-5,7,9(13)-trien-4-one], the IC50 on tankyrase 2 (TNKS2) and on tankyrase 1 (TNKS1) was 5 to 20 nM in each case. Further, the GI50 in assay [1] was 1000 to 10000 nM.

Take `COc1ccc(-c2n[nH]nc2C2NC(=O)c3cccc(C(F)(F)F)c3N2)cc1` (stereo not drawn) [Example 71, 2-[5-(4-Methoxyphenyl)-2H-1,2,3-triazol-4-yl]-8-(trifluoromethyl)-2,3-dihydro-1H-quinazolin-4-one]: the IC50 on tankyrase 2 (TNKS2) and on tankyrase 1 (TNKS1) was 20 to 50 nM each time. Besides, in assay [1], the concentration for 50% growth inhibition (GI50) lay in the range of 1000 to 10000 nM.

For `Cc1cccc2c1NC(c1n[nH]nc1-c1ccc(OCC(F)(F)F)cc1)NC2=O` (stereo not drawn) [Example 72, 8-Methyl-2-[4-[4-(2,2,2-trifluoroethoxy)phenyl]-2H-1,2,3-triazol-5-yl]-2,3-dihydro-1H-quinazolin-4-one], the IC50 on tankyrase 2 (TNKS2) and on tankyrase 1 (TNKS1) was 5 to 20 nM each time. In addition, the 50% growth inhibitory concentration (GI50) in assay [1] fell in the range of 1000 to 10000 nM.

For `Cc1cccc2c1NC(c1n[nH]nc1-c1ccc(OC(F)F)cc1)NC2=O` (stereo not drawn) [Example 73, 2-[4-[4-(Difluoromethoxy)phenyl]-2H-1,2,3-triazol-5-yl]-8-methyl-2,3-dihydro-1H-quinazolin-4-one], the concentration for half-maximal inhibition (IC50) on tankyrase 2 (TNKS2) and at tankyrase 1 (TNKS1) was 20 to 50 nM in each case. Further, the GI50 in assay [1] is at least 10000 nM.

Regarding `CCCOc1ccc(-c2n[nH]nc2C2NC(=O)c3cccc(C)c3N2)cc1` (stereo not drawn) [Example 74, 8-Methyl-2-[5-(4-propoxyphenyl)-2H-1,2,3-triazol-4-yl]-2,3-dihydro-1H-quinazolin-4-one], the IC50 at tankyrase 2 (TNKS2) and at tankyrase 1 (TNKS1) was 5 to 20 nM in each case. Besides, the GI50 in assay [1] is 1000 to 10000 nM.

Turning to `CCOc1ccc(-c2n[nH]nc2C2NC(=O)c3cccc4c3N2CC4)cc1` (stereo not drawn) [Example 75, 11-[5-(4-Ethoxyphenyl)-2H-1,2,3-triazol-4-yl]-1,10-diazatricyclo[6.3.1.0^4,12]dodeca-4(12),5,7-trien-9-one], the IC50 at tankyrase 2 (TNKS2) and on tankyrase 1 (TNKS1) was 5 to 20 nM each time. Besides, the GI50 in assay [1] fell in the range of 1000 to 10000 nM.

On to `Cc1cccc2c1NC(c1n[nH]nc1-c1ccc(OC(C)C)cc1)NC2=O` (stereo not drawn) [Example 76, 8-Methyl-2-[5-(4-propan-2-yloxyphenyl)-2H-1,2,3-triazol-4-yl]-2,3-dihydro-1H-quinazolin-4-one], for which the IC50 at tankyrase 2 (TNKS2) was in the range of 5 to 20 nM; at tankyrase 1 (TNKS1), 20 to 50 nM. For the same molecule, the GI50 in assay [1] is 1000 to 10000 nM.

In the case of `[2H]C([2H])([2H])Oc1ccc(-c2n[nH]nc2C2NC(=O)c3cccc(C)c3N2)cc1` (stereo not drawn) [Example 77], the IC50 at tankyrase 2 (TNKS2) and at tankyrase 1 (TNKS1) was 5 to 20 nM in each case. Further, the GI50 in assay [1] was under 1000 nM.

`Cc1cccc2c1NC(c1n[nH]nc1-c1ccc(OCC(F)F)cc1)NC2=O` (stereo not drawn) [Example 78, 2-[4-[4-(2,2-Difluoroethoxy)phenyl]-2H-1,2,3-triazol-5-yl]-8-methyl-2,3-dihydro-1H-quinazolin-4-one]: the results for the IC50 at tankyrase 2 (TNKS2) and at tankyrase 1 (TNKS1) were under 5 nM and 5 to 20 nM, respectively. The GI50 in assay [1] fell in the range of 1000 to 10000 nM.

In the case of `CCOC(=O)COc1ccc(-c2n[nH]nc2C2NC(=O)c3cccc(C)c3N2)cc1` (stereo not drawn) [Example 79], the IC50 on tankyrase 2 (TNKS2) and at tankyrase 1 (TNKS1) was 5 to 20 nM each time. In addition, the GI50 in assay [1] was at least 10000 nM.

With `CCOc1ccc(-c2n[nH]nc2C2NC(=O)c3cccc(CC)c3N2)cc1` (stereo not drawn) [Example 80, 2-[5-(4-Ethoxyphenyl)-2H-1,2,3-triazol-4-yl]-8-ethyl-2,3-dihydro-1H-quinazolin-4-one], the IC50 on tankyrase 2 (TNKS2) and on tankyrase 1 (TNKS1) was 5 to 20 nM throughout. Moreover, the GI50 in assay [1] is under 1000 nM.

On to `CCc1cccc2c1NC(c1n[nH]nc1-c1ccc(OC)cc1)NC2=O` (stereo not drawn) [Example 81, 8-Ethyl-2-[4-(4-methoxyphenyl)-2H-1,2,3-triazol-5-yl]-2,3-dihydro-1H-quinazolin-4-one], for which the IC50 on tankyrase 2 (TNKS2) was under 5 nM; at tankyrase 1 (TNKS1), 5 to 20 nM. Moreover, the GI50 in assay [1] fell in the range of 1000 to 10000 nM.

Take `COc1ccc(-c2n[nH]cc2C2NC(=O)c3ccccc3N2)cc1` (stereo not drawn) [Example 82, 2-[5-(4-Methoxyphenyl)-1H-pyrazol-4-yl]-2,3-dihydro-1H-quinazolin-4-one]: the IC50 at tankyrase 2 (TNKS2) and on tankyrase 1 (TNKS1) was 5 to 20 nM each time. In addition, the GI50 in assay [1] is at least 10000 nM.
